Data on 25 compounds can be found in patent publication US9657009B2, “Heteroaryl substituted pyridyl compounds useful as kinase modulators” (BRISTOL-MYERS SQUIBB COMPANY, priority 2012, dated 2017).

Each structure is given as a SMILES string.

Sequence of IRAK4 (Q9NWZ3 whole entry, species assumed): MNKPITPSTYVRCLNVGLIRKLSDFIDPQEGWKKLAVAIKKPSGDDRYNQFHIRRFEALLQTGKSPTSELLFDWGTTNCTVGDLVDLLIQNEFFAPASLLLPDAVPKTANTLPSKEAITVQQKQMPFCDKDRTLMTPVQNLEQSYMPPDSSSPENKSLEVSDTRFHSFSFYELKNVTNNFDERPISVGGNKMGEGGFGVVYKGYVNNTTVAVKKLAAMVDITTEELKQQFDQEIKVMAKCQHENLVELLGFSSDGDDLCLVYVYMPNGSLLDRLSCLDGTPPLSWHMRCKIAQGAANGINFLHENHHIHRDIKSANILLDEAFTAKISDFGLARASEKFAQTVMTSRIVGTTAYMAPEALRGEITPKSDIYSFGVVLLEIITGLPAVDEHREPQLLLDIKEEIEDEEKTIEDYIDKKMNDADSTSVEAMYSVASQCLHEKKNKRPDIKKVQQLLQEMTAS

The first assay concerns the target IRAK4 (Homo sapiens (Human), UniProt Q9NWZ3). As to the kind of experiment: IRAK4 Inhibition Assay. Format: biochemical. Conditions: ATP 500 μM; IRAK4 0.6 nM; 60 min at room temperature; read-out: IRAK4 IC50. The method, then: IRAK4 Inhibition Assay The assays were performed in U-bottom 384-well plates. […] The reaction was initiated by the combination of IRAK4 with substrates and test compounds. The reaction mixture was incubated at room temperature for 60 min. and terminated by adding 45 μL of 35 mM EDTA to each sample.
The IC50 is the concentration that gives 50% inhibition. Consider `CC(C)(O)[C@H](F)CNC(=O)c1cnc(Nc2ncc(C#N)cn2)cc1N[C@H]1CCC[C@@H]1F` [Example 54], for which the IC50 amounted to 5.9 nM.

Turning to `CC(C)(O)[C@H](F)CNC(=O)c1cnc(Nc2ncc(C#N)cn2)cc1N[C@H]1CCC[C@@H]1F` [Example 55], the IC50 is 5 nM. With `CC(C)(O)[C@H](F)CNC(=O)c1cnc(Nc2ncc(C#N)cc2F)cc1Nc1ccc(C(N)=O)cc1` [Example 142], the IC50 amounted to 1.2 nM. For the compound `CC(C)(O)[C@H](F)CNC(=O)c1cnc(Nc2ncc(C#N)cc2Cl)cc1Nc1cccc(C(N)=O)c1` [Example 143], the IC50 was 2.9 nM. On the same count and under the same terms, then `Cn1nnnc1-c1cccc(Nc2cc(Nc3ncc(C#N)cc3Cl)ncc2C(=O)NC[C@@H](F)C(C)(C)O)c1` [Example 146], with 8.5 nM. On the same count and under the same terms, then `Cn1nnnc1-c1ccc(Nc2cc(Nc3ncc(C#N)cn3)ncc2C(=O)NC[C@@H](F)C(C)(C)O)cc1` [Example 147], with 12.4 nM; and `Cn1nnnc1-c1ccc(Nc2cc(Nc3ncc(C#N)cc3Cl)ncc2C(=O)NC[C@@H](F)C(C)(C)O)cc1` [Example 148], with 3.4 nM. Consider `CS(=O)(=O)[C@H]1CC[C@H](NC(=O)c2cnc(Nc3ncc(C#N)cc3Cl)cc2NC2CCOCC2)CC1` [Example 149], for which the IC50 came to 3 nM. Still for that read-out and setting: the figure for `CC(C)(O)[C@H](F)CNC(=O)c1cnc(Nc2ncc(C#N)cc2Cl)cc1N[C@H]1CC[C@](C)(O)CC1` [Example 150] is 1.4 nM; for `CS(=O)(=O)[C@H]1CC[C@H](NC(=O)c2cnc(Nc3ncc(C#N)cc3Cl)cc2NC2CC2)CC1` [Example 151] it is 3.3 nM. On the same count and under the same terms, the figure for `CC(C)(O)[C@H](F)CNC(=O)c1cnc(Nc2ncc(C#N)cc2Cl)cc1N[C@H]1CC[C@@](C)(O)CC1` [Example 152] is 5.3 nM. Same read-out and setting: then `CC(C)(O)[C@H](F)CNC(=O)c1cnc(Nc2ncc(C#N)cc2Cl)cc1Nc1ccc2ncsc2c1` [Example 153], with 5.6 nM. As for `CC(C)(O)[C@H](F)CNC(=O)c1cnc(Nc2ncc(C#N)c(N)n2)cc1NC1CC1` [Example 154], the IC50 worked out at 5.2 nM.

With `CC(C)CNc1cc(Nc2ncc(C#N)cc2Cl)ncc1C(=O)NC[C@@H](F)C(C)(C)O` [Example 155], the IC50 is 4.3 nM. On the same count and under the same terms, then `CC(C)Nc1cc(Nc2ncc(C#N)cc2Cl)ncc1C(=O)NC[C@H](F)C(C)(C)O` [Example 156], with 8.6 nM; and `CS(=O)(=O)[C@H]1CC[C@H](NC(=O)c2cnc(Nc3ncc(C#N)cc3F)cc2Nc2cccc(C(N)=O)c2)CC1` [Example 161], with 15.5 nM. In the case of `CC(C)(O)[C@H](F)CNC(=O)c1cnc(Nc2ncc(C#N)cc2Cl)cc1Nc1cccc(C#N)c1` [Example 162], the concentration for half-maximal inhibition (IC50) worked out at 2.6 nM. Same read-out and setting: the figure for `CC(Nc1cc(Nc2ncc(C#N)cn2)ncc1C(=O)NC[C@@H](F)C(C)(C)O)C1CC1` (stereo partly drawn) [Example 163] is 10.2 nM; for `CC(C)(O)[C@H](F)CNC(=O)c1cnc(Nc2ncc(C#N)cc2F)cc1NC1COC1` [Example 164] it is 8 nM; for `COC(=O)N[C@H]1CC[C@H](NC(=O)c2cnc(Nc3ncc(C#N)cc3F)cc2NC(C)C)CC1` [Example 165] it is 11.3 nM. Consider `CC(C)Nc1cc(Nc2ncc(C#N)cc2F)ncc1C(=O)NC1CCC(O)(c2ccnn2C)CC1` (stereo not drawn) [Example 166], for which the IC50 is 8.2 nM.

In the case of `CC(C)Nc1cc(Nc2ncc(C#N)cc2F)ncc1C(=O)NC1CCC(O)(c2nccs2)CC1` (stereo not drawn) [Example 167], the IC50 was 13 nM.

Staying with this assay, now noted: read-out: IRAK4 IC50; ATP 500 μM; IRAK4 0.6 nM; 60 min at room temperature.
Regarding `CC(C)Nc1cc(Nc2ncc(C#N)cc2F)ncc1C(=O)NC1CCC(C(C)(O)C2CC2)CC1` (stereo not drawn) [Example 144], the IC50 stood at 7.8 nM.

The test system of another assay is TLR2 induced IL-6 in peripheral blood mononuclear cells (PBMCs). As to the kind of experiment: PBMC TLR2 Induced IL-6 Assay. Format: cell-based. Conditions: human PBMCs, lipoteichoic acid 10 μg/ml, 5 hours, IL-6 by ELISA; values marked * are EC50; read-out: Cell EC50 (*EC50). On the procedure: PBMC TLR2 Induced IL-6 Assay Peripheral blood mononuclear cells (PBMCs) were isolated from human blood containing the anti-coagulant EDTA (2.5 mM) by centrifugation over a FICOLL® gradient. […] At the end of the culture, plates were centrifuged at 1800 rpm for 10 minutes to pellet the cells. Supernatants were harvested and analyzed for IL-6 levels by ELISA (BD Biosciences, San Jose, Calif.).
A general note: In an ELISA, binding on a coated surface is turned into a signal by an enzyme label.
Usually EC50 stands for the concentration at which the effect is half-maximal. For the compound `CC(F)[C@@H](C)Nc1cc(Nc2ncc(C#N)cc2Cl)ncc1C(=O)NC[C@@H](F)C(C)(C)O` (stereo partly drawn) [Example 159], the EC50 worked out at 130 nM. On to `CC(F)[C@@H](C)Nc1cc(Nc2ncc(C#N)cc2Cl)ncc1C(=O)NC[C@@H](F)C(C)(C)O` (stereo partly drawn) [Example 160], for which the half-maximal effective concentration (EC50) worked out at 846 nM.

Staying with this assay, now noted: human PBMCs, lipoteichoic acid 10 μg/ml, 5 hours, IL-6 by ELISA; values without asterisk; read-out: Cell IC50.
Take `CC(C)(O)[C@H](F)CNC(=O)c1cnc(Nc2ncc(C#N)cn2)cc1N[C@H]1CCC[C@@H]1F` [Example 54]: the IC50 came to 126 nM. `CC(C)(O)[C@H](F)CNC(=O)c1cnc(Nc2ncc(C#N)cn2)cc1N[C@H]1CCC[C@@H]1F` [Example 55]: the IC50 was 27 nM.
